Data published in US20240082221A1, “COMPOSITIONS AND METHODS FOR THE IDENTIFICATION OF COMPOUNDS THAT PROTECT AGAINST LIPOFUSCIN CYTOTOXICITY” (priority 2021, published 2024).
Read-outs that look alike come from different tables or passages of the source.

Tests used:
[1] = system: ARPE-19 cells
Experimental: Cell Viability Assay. […] 1× AlamarBlue solution prepared in OptiMEM was used to replace the media supernatant and the plate's fluorescence was determined at 555 nm excitation/585 nm emission with a SpectraMax M (Molecular Devices, CA, USA), after 1 h. […] The exact timing of appearance of far-red (DRAQ7=plasma membrane leakage) and blue (NUC405=caspase 3 activation) fluorescence signals was critical to differentiate apoptosis and necrosis from secondary events, such as membrane damage and generalized proteolytic activation during the late phase of apoptosis and necrosis, respectively.
Real time monitoring of necrotic and apoptotic cell-death. Cell-death assay to study Lipofuscin's dark toxicity was performed. 90% confluent ARPE-19 or hfRPE were incubated overnight in serum free media supplemented with indicated LB concentration. Viability was assessed at 24 hrs by AlamarBlue®, or microscopy with NUC405/DRAQ7. Real time monitoring of necrotic (red) and apoptotic (blue) cell-death was performed by automated fluorescence microscopy. The exact timing of appearance of far-red (DRAQ7=plasma membrane leakage) and blue (NUC405=caspase 3 activation) fluorescence signals was critical to differentiate apoptosis and necrosis from secondary events, such as membrane damage and generalized proteolytic activation during the late phase of apoptosis and necrosis, respectively.
Chemical inhibitors. Chemical inhibitors used in this study are described in FIG. 12.

[2] = system: hfRPE; test: Light-independent lipofuscin cell-death/viability assay in hfRPE; format: cell-based, Human
Experimental: Cell culture. Human retinal pigment epithelium (ARPE-19) cells were obtained from ATCC and were cultured in Dulbecco's modified Eagle's medium (DMEM) supplemented with 10% FBS and 1% penicillin/streptomycin. Cells were kept in an incubator with 5% C02 and 95% humidified air at 37° C. Human fetal RPE (hfRPE) cells from donors at 16 to 18 weeks gestation were cultured at 37° C., 5% C02 in RPE medium. To grow polarized hfRPE cells, the cells were seeded in 12 well transwell plate in 1% RPE medium with Rock kinase inhibitor for the first week. After the first week, cells were cultured in normal 1% RPE medium for 3 weeks. Cells were used in passage 1.
Real time monitoring of necrotic and apoptotic cell-death.

[3] = system: pMLKL; test: Fluorescence microscopy of pMLKL plasma membrane translocation in ARPE-19 monolayers; format: cell-based, Human; settings: ARPE-19 with A2E or ATRD
Description: Chronic accumulation of polymeric pMLKL could account for progressive damage in pigmented retinas as they amass LF.

[4] = system: phospho-MLKL; test: Intravitreal treatment of DKO mice, phospho-MLKL immunostaining of retina; format: in vivo, ABCA4−/− RDH8−/− double knock-out mice (DKO)
Experimental: Animals. Pigmented ABCA4^−/− RDH8^−/− double knock-out mice (DKO), free of rd8 mutation, were purchased from Jackson laboratories and every 10 generations were in house backcrossed to the C57BL6J control strain, to prevent genetic drifts. Genotyping was performed at Transnetyx (Memphis, TN). Only mice with ABCA4, RDH8, RPE65-Leu450 but no crb1 mutations (retinal degeneration slow) were maintained in the colony. Controls C57BL/6J (Rpe65-Leu450, crb1negative) were also Jackson's lab. All mice were housed at Weill Cornell Medicine's animal facility under a 12 h light (˜10 lux)/12 h dark cycle environment or under complete darkness. Experimental manipulations in the dark were done under dim red light transmitted through a Kodak No. 1 safelight filter (transmittance >560 nm). No retinal degeneration or necroptosis markers were appreciably detected in 20 months or older C57BL6/N (Rpe65-Met450, crb1 positive) obtained from the NAI/NIH. All animal procedures and experiments were approved by the Animal Care and Use Committee of Weill Cornell Medical College in agreement with the guidelines established by the NIH Office of Laboratory Animal Welfare and the Association of Research for Vision and Ophthalmology (ARVO) statement for the use of animals in ophthalmic research.
RPE and Neural retina flat mounts. Mouse eyes were enucleated and placed in 4% PFA in PBS for 1 h at room temperature. After fixing, a 23G needle was used to make a hole at the limbus area and iris scissors used to cut around the circumference of the limbus, remove the cornea, iris and lens, separate the neuronal retina and sclera by micro-forceps. Neuronal retina and RPE layer were dissected out and incubated with blocking buffer (1% BSA and 0.3% Triton-X-100 in PBS) for at least 20 min. Primary antibodies were added to the blocking buffer and kept at 4° C. overnight. Retina and RPE layer were washed and incubated with secondary antibodies for at least 30 min at room temperature, then washed with PBS three times. Under the dissection microscope, retina or RPE layer was cut into a four-leaf clover shape and mount on the slides in mount medium (EMS glycerol mounting medium with DAPI and DABCO, cat. No. 17989-61). Slides were stored at 4° C. until imaging.
Cryosections and Immunofluorescence staining. Mouse eyes were fixed with 4% PFA and penetrated with 30% sucrose overnight at 4° C., then cryopreserved in Tissue-Tek OCT compound (Sakura Finetek, Torrance, CA, USA) and cut into 15 μm sections. Sections were blocked with 1% BSA and 0.1% Triton-X-100 PBS, and then immunofluorescence staining was performed using standard methods and the appropriate dilutions of primary antibodies against p- p-MLKL (cell signaling), XBP1s (Biogend), Iba-1 (Abcam), CD11b (Millipore), Lamp2 (hybridoma bank), CellRox and DRAQ7 (Invitrogen), Rhodopsin (Abcam), phalloidin-CF660 (Biotium, cat.no. 0052), Hoechst33324, caspase3 (clone9664, Cell signaling). Subsequently, slides were incubated with Alexa-647, Alexa-594 secondary antibodies, and counterstained with Hoechst33324. Negative controls were included in each staining, and slides were mounted with anti-fade mount medium. Slides were stored at 4° C. before analysis on SD microscope using Zen software. For paraffin sections, mouse eyes were embedded in paraffin and cut into 5-μm sections. […]
Pharmacological treatment of mice. […] The exact volume of Mock reagent or Kira6 was determined by 10 μl Hamilton syringe. […]

| Compound | protection against light-independent LF (A2E/ATRD) cytotoxicity, RPE survival ([1]; ARPE-19, inhibitor pretreatment, A2E/ATRD 24 h, no light, AlamarBlue) | protection against light-independent LF (A2E/ATRD) cytotoxicity, RPE survival ([1]; ARPE-19, inhibitor pretreatment, A2E/ATRD 24 h, no light, AlamarBlue, listed as Nec-7) | survival to LF in hfRPE [2] | effect on LF-induced pMLKL plasma membrane localization [3] | membrane and cytosolic pMLKL labeling in RPE flat mounts ([4]; 12 month old DKOs, single intraocular injection, analyzed one week later) | membrane and cytosolic phospho-MLKL staining in RPE flat mounts ([4]; 26-month-old DKO mice, 2 μl intraocular, a week later) | phospho-MLKL (necroptosis) labeling in neuroretina-flat mounts ([4]; DKO mice, intraocular, 1 week earlier) | protection against light-independent LF (A2E/ATRD) cytotoxicity, RPE survival [1] | necroptosis, intracellular and plasma membrane pMLKL labelling in RPE flat mounts ([4]; 26 month old DKO mice, intraocular, a week later) | pMLKL/XBP1s double positive cells (RPE and microglia) ([4]; demelanized paraffin cross-sections, 20 month old DKOs, control 33%) [%] |
| --- | --- | --- | --- | --- | --- | --- | --- | --- | --- | --- |
| N=C1S/C(=C\c2cn[nH]c2-c2ccc(F)cc2)C(=O)N1c1nccs1 [Nec7, Necrostatin 7] | highly protective | protects against necroptosis by lipofuscin | promote survival to LF | effectively reverted the pMLKL membrane localization pattern | reduced to undetectable levels | reduced membrane and cytosolic phospho-MLKL staining to undetectable levels | significantly reduced | – | – | – |
| CC(C)(C)c1nc(-c2ccc(NC(=O)Nc3cccc(C(F)(F)F)c3)c3ccccc23)c2c(N)nccn12 [KIRA6] | – | – | promote survival to LF | inhibition of pMLKL plasma membrane translocation | – | – | – | sufficient to protect against necroptosis by LF | abrogated necroptosis | 4 |
